Reference: patent EP4608400B1, “COMPOUND FOR TREATMENT OF PAIN” (Initiator Pharma A/S, priority 2022, dated 2024)

Columns and labels:
[1] = molecular target: T1, 5-hydroxytryptamine transporter (5-HTT or SERT) (Homo sapiens, UniProt P31645); assay: Inhibition of human transporter in stable epithelial cell lines (5-HTT); format: cell-based; details: average of two replicates (n=2)
T1 construct: expressed in transfected cells
Method: (§1) Compounds were tested for their ability to inhibit the reuptake of the monoamine neurotransmitters dopamine (DA), noradrenaline (NA), and serotonin (5-HT) in synaptosomes as described in WO 97/16451 (NeuroSearch A/S). In addition, the compounds were tested in human epithelial cells expressing human transporters for 5-HT (SERT), dopamine (DAT), and norepinephrine (NET).
(§2) The results are the average of two-replicates per experiment (n=2).

[2] = molecular target: T2, norepinephrine transporter (NET) (Homo sapiens, UniProt P23975); assay: Inhibition of human transporter in stable epithelial cell lines (NET); format: cell-based; details: average of two replicates (n=2)
T2 construct: expressed in transfected cells
T2 sequence (P23975 whole entry): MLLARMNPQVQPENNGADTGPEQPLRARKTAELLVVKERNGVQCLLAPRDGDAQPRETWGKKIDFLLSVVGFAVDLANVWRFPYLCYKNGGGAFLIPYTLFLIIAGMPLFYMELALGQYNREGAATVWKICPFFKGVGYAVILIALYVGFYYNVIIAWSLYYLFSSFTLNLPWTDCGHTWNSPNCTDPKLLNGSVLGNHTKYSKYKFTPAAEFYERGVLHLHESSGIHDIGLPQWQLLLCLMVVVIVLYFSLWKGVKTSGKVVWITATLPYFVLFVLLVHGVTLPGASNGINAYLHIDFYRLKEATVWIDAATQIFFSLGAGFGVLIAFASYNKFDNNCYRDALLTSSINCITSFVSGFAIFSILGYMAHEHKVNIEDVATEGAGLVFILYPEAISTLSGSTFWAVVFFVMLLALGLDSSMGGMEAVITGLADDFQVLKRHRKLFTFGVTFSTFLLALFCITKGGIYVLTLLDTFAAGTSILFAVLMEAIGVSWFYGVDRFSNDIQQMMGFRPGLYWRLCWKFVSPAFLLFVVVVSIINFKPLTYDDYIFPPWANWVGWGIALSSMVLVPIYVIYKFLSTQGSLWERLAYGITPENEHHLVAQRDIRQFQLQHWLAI
Method: as §1, §2

T1 sequence (P31645 whole entry): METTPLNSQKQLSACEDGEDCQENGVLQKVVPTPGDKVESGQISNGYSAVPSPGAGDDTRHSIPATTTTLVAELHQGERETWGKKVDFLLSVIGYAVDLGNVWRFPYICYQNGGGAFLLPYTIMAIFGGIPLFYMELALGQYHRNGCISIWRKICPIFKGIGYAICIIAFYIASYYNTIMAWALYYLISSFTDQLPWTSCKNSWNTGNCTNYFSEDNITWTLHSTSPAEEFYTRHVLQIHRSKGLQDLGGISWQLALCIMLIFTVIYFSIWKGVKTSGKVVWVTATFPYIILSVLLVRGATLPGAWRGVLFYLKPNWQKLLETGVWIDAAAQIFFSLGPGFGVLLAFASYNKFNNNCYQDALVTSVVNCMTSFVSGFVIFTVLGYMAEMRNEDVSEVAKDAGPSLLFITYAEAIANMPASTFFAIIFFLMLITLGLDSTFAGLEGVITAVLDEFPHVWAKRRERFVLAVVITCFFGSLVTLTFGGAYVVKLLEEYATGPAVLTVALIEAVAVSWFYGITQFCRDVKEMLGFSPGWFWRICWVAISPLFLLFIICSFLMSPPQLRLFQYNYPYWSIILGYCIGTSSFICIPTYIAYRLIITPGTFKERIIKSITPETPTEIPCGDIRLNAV

COc1cc2ccc(O[C@@H]3C[C@H]4CC[C@@H](C3)N4)cc2oc1=O [IP2015, exo-7-[(8-azabicyclo[3.2.1]octan-3-yl)oxy]-3-methoxy-chromen-2-one]
IC50 [1]: 0.297 nM | IC50 [2]: 95 nM
